From patent US8507690B2, “Thiazole derivative and use thereof as VAP-1 inhibitor” (R-Tech Ueno, Ltd., priority 2008, dated 2013)

Assays:
[1] = target: T1, human VAP-1 enzyme (SSAO) (Homo sapiens, UniProt Q16853); assay: Enzyme activity inhibitory effect on human VAP-1 enzyme (SSAO), radiochemical-enzyme assay with 14C-benzylamine; format: biochemical; details: human VAP-1 (SSAO) cell extract, 14C-benzylamine 1×10^−5 mol/l, 37° C. 2 hours
T1 construct: made in house; cell extract used
T1 sequence (Q16853 1-763): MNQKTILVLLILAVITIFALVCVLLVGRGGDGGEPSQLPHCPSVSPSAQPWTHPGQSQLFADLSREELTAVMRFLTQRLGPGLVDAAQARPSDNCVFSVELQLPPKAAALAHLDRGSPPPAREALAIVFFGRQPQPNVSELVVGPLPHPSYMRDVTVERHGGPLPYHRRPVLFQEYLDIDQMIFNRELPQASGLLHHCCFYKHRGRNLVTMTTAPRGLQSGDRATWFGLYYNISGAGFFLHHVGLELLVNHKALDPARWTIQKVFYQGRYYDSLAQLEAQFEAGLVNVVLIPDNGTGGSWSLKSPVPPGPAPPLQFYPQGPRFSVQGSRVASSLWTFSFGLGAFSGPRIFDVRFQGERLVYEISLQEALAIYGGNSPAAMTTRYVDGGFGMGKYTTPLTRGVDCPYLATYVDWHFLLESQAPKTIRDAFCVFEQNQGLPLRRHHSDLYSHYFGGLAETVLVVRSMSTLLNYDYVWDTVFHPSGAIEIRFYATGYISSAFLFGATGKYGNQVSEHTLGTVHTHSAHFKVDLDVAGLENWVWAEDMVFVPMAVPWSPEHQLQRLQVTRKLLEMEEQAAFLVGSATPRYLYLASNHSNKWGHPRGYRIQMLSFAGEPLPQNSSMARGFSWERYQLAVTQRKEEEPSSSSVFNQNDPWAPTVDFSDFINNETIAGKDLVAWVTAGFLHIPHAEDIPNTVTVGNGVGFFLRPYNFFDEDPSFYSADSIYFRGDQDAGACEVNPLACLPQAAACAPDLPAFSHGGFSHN
Protocol: (§1) The compounds of the present invention obtained in Production Examples were examined for the enzyme activity inhibitory effect on human and rat VAP-1 enzyme (SSAO) by the following method.
(§2) The VAP-1 enzyme (SSAO) activity in both human and rat was measured by a radiochemical-enzyme assay using ^14C-benzylamine as an artificial substrate. Human or rat VAP-1 was cloned from the cDNA library and expressed in a cell. The cell extract was preincubated with a test compound solution (final concentration 1×10^−7-1×10^−11 mol/l) at room temperature for 20 minutes. Then, ^14C-benzylamine (final concentration 1×10^−5 mol/l) was added, and the mixture was incubated at a final volume of 200 μl at 37° C. for 2 hours. The enzyme reaction was stopped by addition of 2 mol/l (200 μl) citric acid. The oxidation product was extracted with 1 ml toluene/ethyl acetate (1:1), and the radioactivity thereof was measured by a liquid scintillation counter.

rat VAP-1 enzyme (SSAO) = target: T2, rat VAP-1 enzyme (SSAO) (Rattus norvegicus, UniProt O08590); assay: Enzyme activity inhibitory effect on rat VAP-1 enzyme (SSAO), radiochemical-enzyme assay with 14C-benzylamine; format: biochemical; details: rat VAP-1 (SSAO) cell extract, 14C-benzylamine 1×10^−5 mol/l, 37° C. 2 hours
T2 construct: made in house; cell extract used
T2 sequence (O08590 1-763): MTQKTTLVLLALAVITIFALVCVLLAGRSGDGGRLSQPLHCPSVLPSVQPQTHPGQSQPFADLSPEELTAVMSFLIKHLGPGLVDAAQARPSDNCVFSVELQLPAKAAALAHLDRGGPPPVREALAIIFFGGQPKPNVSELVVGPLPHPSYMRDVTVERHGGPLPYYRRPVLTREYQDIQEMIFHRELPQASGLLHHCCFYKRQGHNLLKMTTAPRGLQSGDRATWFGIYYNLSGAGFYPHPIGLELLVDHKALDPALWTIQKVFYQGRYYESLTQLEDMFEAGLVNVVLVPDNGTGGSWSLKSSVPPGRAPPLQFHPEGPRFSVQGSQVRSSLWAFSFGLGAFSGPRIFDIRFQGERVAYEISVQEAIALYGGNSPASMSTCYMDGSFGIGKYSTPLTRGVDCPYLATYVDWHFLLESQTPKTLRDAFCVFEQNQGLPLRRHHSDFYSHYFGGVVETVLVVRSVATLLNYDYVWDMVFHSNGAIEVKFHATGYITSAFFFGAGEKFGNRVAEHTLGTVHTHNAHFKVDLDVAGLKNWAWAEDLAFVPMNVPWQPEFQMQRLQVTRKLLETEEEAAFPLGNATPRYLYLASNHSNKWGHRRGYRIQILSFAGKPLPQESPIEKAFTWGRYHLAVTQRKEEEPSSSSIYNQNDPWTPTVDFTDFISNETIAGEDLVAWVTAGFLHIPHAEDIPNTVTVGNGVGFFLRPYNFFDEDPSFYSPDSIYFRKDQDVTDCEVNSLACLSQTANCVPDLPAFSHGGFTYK
Protocol: as §1, §2

Row | IC50 [1] [nM] | IC50 (rat VAP-1 enzyme (SSAO)) [nM] | melting point [°C] | SMILES
1 | 18.8 | 3.8 | 178 to 181 | CC(=O)Nc1nc(CCc2ccc(CCNC(=O)NN)s2)cs1.Cl [Production Example 30, N-[2-(5-{2-[2-(acetylamino)-1,3-thiazol-4-yl]ethyl}thiophen-2-yl)ethyl]hydrazinecarboxamide hydrochloride]
2 | 1.3 | 0.2 | 113 to 119 | CC(=O)Nc1nc(CCc2cccc(COC(=O)NN)c2)cs1.Cl [Production Example 11, 3-{2-[2-(acetylamino)-1,3-thiazol-4-yl]ethyl}benzyl hydrazinecarboxylate hydrochloride]
3 | 11.7 | 2.3 | 172 to 174 | CC(=O)Nc1nc(CCc2ccc(CCOC(=O)NN)cc2)cs1.Cl [Production Example 3, 2-(4-{2-[2-(acetylamino)-1,3-thiazol-4-yl]ethyl}phenyl)ethyl hydrazinecarboxylate hydrochloride]
4 | 13.3 | 3.3 | 204 to 207 | CC(=O)Nc1nc(C(=O)Oc2ccc(CCNC(=O)NN)cc2)cs1.Cl [Production Example 26, 4-{2-[(hydrazinocarbonyl)amino]ethyl}phenyl 2-(acetylamino)-1,3-thiazole-4-carboxylate hydrochloride]
5 | 57 | 7.1 | 177 to 180 | CC(=O)Nc1nc(COc2ccc(CCOC(=O)NN)cc2)cs1 [Production Example 7, 2-(4-{[2-(acetylamino)-1,3-thiazol-4-yl]methoxy}phenyl)ethyl hydrazinecarboxylate]
6 | 1.2 | 1.1 | 204 to 208 | CC(=O)Nc1nc(CCc2ccc(COC(=O)NN)cc2F)cs1.Cl [Production Example 5, 4-{2-[2-(acetylamino)-1,3-thiazol-4-yl]ethyl}-3-fluorobenzyl hydrazinecarboxylate hydrochloride]
7 | 0.8 | 0.4 | 162 to 165 | CC(=O)Nc1nc(CCc2ccc(COC(=O)NN)c(F)c2)cs1.Cl [Production Example 4, 4-{2-[2-(acetylamino)-1,3-thiazol-4-yl]ethyl}-2-fluorobenzyl hydrazinecarboxylate hydrochloride]
8 | 3.2 | 0.5 | 138 to 140 | CC(=O)Nc1nc(CCc2cccc(CCOC(=O)NN)c2)cs1.Cl [Production Example 12, 2-(3-{2-[2-(acetylamino)-1,3-thiazol-4-yl]ethyl}phenyl)ethyl hydrazinecarboxylate hydrochloride]
9 | 2.1 | 0.6 | 123 to 127 | CC(=O)Nc1nc(CCc2cccc(CNC(=O)NN)c2)cs1.Cl [Production Example 27, N-(3-{2-[2-(acetylamino)-1,3-thiazol-4-yl]ethyl}benzyl)hydrazinecarboxamide hydrochloride]
10 | 16.7 | 10.5 | 98 to 102 | CC(=O)Nc1nc(CCc2cc(CCCOC(=O)NN)cs2)cs1.Cl [Production Example 16, 3-(5-{2-[2-(acetylamino)-1,3-thiazol-4-yl]ethyl}thiophen-3-yl)propyl hydrazinecarboxylate hydrochloride]
11 | 2.8 | 1.6 | 172 to 175 | CC(=O)Nc1nc(CCc2ccc(CNC(=O)NN)c(F)c2)cs1.Cl [Production Example 20, N-(4-{2-[2-(acetylamino)-1,3-thiazol-4-yl]ethyl}-2-fluorobenzyl)hydrazinecarboxamide hydrochloride]
12 | 1.8 | 0.6 | 158 to 161 | CC(=O)Nc1nc(CCc2ccc(CNC(=O)NN)s2)cs1.Cl [Production Example 29, N-[2-(5-{2-[2-(acetylamino)-1,3-thiazol-4-yl]ethyl}thiophen-2-yl)methyl]hydrazinecarboxamide hydrochloride]

Row | SMILES | IC50 [1] [nM] | IC50 (rat VAP-1 enzyme (SSAO)) [nM] | melting point [°C]
13 | CC(=O)Nc1nc(CCc2ccc(OC(=O)NN)cc2)cs1.Cl [Production Example 1, 4-{2-[2-(acetylamino)-1,3-thiazol-4-yl]ethyl}phenyl hydrazinecarboxylate hydrochloride] | 2.5 | 0.2 | 167 to 169
